Measurements as given in US20250290117A1, “MOLECULAR PHENOTYPIC ANTIMICROBIAL SUSCEPTIBILITY TESTING” (priority 2024, published 2025).

Columns and labels:
Type in all cases: cell-based
[1] = tested on: pathogens of clinical samples; experiment: Molecular phenotypic antimicrobial susceptibility test of clinical samples, direct PCR without a separate DNA purification step (Table 6)
In short: (§1)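 For direct PCR, exposed cultures are lysed in buffer in the thermal cycler, whereas purified runs first isolate DNA with magnetic beads. Pathogen-specific or universal targets are amplified semi-quantitatively after 12-16 h of antimicrobial exposure in Mueller Hinton Broth.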

[2] = tested on: Escherichia coli; experiment: Traditional culture-based antimicrobial susceptibility test
In short: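 Susceptibility of each E. coli isolate to each antimicrobial was determined the standard way: pathogens were grown, isolated and then exposed to the agents.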

[3] = tested on: Escherichia coli; experiment: Molecular phenotypic antimicrobial susceptibility test (extraction or DNA purification prior to PCR)
In short: as §1

[4] = tested on: pathogens of clinical samples; experiment: Molecular phenotypic antimicrobial susceptibility test of clinical samples, extraction DNA purification step prior to PCR (Table 6)
In short: as §1

[5] = E. coli, clinical sample of r10-r24
[6] = E. coli, clinical sample of r158-r172
[7] = K. aerogenes, clinical sample of r136-r150
[8] = K. pneumoniae, clinical sample of r121-r135
[9] = M. morganii, clinical sample of r55-r69
[10] = M. morganii, clinical sample of r70-r84
[11] = P. mirabilis, clinical sample of r25-r39
[12] = P. mirabilis, clinical sample of r40-r54
[13] = S. aureus, clinical sample of r85-r92

Trimethoprim/Sulfamethoxazole [TMP/SMX]
Molecular Antibiotic Susceptibility Result [1, 5]: Sensitive (Antimicrobial wells with pathogen load detected below the control wells (typically >2 cycle thresholds later) may be reported as Sensitive) | Ct ([1]; E. coli, clinical sample of r10-r24, Ct control avg 12.97): 24.066 | Molecular Antibiotic Susceptibility Result [1, 6]: Sensitive (Antimicrobial wells with pathogen load detected below the control wells (typically >2 cycle thresholds later) may be reported as Sensitive) | Ct ([1]; E. coli, clinical sample of r158-r172, Ct control avg 12.894): 28.739 | Molecular Antibiotic Susceptibility Result [1, 7]: Sensitive (Antimicrobial wells with pathogen load detected below the control wells (typically >2 cycle thresholds later) may be reported as Sensitive) | Ct ([1]; K. aerogenes, clinical sample of r136-r150, Ct control avg 13.854): 30.511 | Molecular Antibiotic Susceptibility Result [1, 8]: Sensitive (Antimicrobial wells with pathogen load detected below the control wells (typically >2 cycle thresholds later) may be reported as Sensitive) | Ct ([1]; K. pneumoniae, clinical sample of r121-r135, Ct control avg […]): 29.719 | Molecular Antibiotic Susceptibility Result [1, 9]: Sensitive (Antimicrobial wells with pathogen load detected below the control wells (typically >2 cycle thresholds later) may be reported as Sensitive) | Ct ([1]; M. morganii, clinical sample of r55-r69, Ct control avg 12.09): 22.916 | Molecular Antibiotic Susceptibility Result [1, 10]: Sensitive (Antimicrobial wells with pathogen load detected below the control wells (typically >2 cycle thresholds later) may be reported as Sensitive) | Ct ([1]; M. morganii, clinical sample of r70-r84, Ct control avg 11.677): 22.281 | Molecular Antibiotic Susceptibility Result [1, 11]: Sensitive (Antimicrobial wells with pathogen load detected below the control wells (typically >2 cycle thresholds later) may be reported as Sensitive) | Ct ([1]; P. mirabilis, clinical sample of r25-r39, Ct control avg 11.801): 23.476 | Molecular Antibiotic Susceptibility Result [1, 12]: Sensitive (Antimicrobial wells with pathogen load detected below the control wells (typically >2 cycle thresholds later) may be reported as Sensitive) | Ct ([1]; P. mirabilis, clinical sample of r40-r54, Ct control avg 10.06): 25.628 | Molecular Antibiotic Susceptibility Result [1, 13]: Sensitive (Antimicrobial wells with pathogen load detected below the control wells (typically >2 cycle thresholds later) may be reported as Sensitive) | Ct ([1]; S. aureus, clinical sample of r85-r92, Ct control avg 20.309): 28.965 | Traditional Culture Result ([2]; E. coli isolate 1 (Table 3)): Sensitive | Traditional Culture Result ([2]; E. coli isolate 2 (Table 3)): Sensitive | Traditional Culture Result ([2]; E. coli isolate 3 (Table 3)): Sensitive | Traditional Culture Result ([2]; E. coli isolate 4 (Table 3)): Resistant | Traditional Culture Result ([2]; E. coli isolate 5 (Table 3)): Sensitive | Traditional Culture Result ([2]; E. coli isolate JJ1887): Resistant | Ct at Sensitive Breakpoint ([3]; E. coli isolate 1, Ct at control (average) 21.238): 32.294 | Molecular Antimicrobial Susceptibility Result ([3]; E. coli isolate 1, at sensitive breakpoint): Sensitive (Antimicrobial wells with pathogen load detected below the control wells (typically >2 cycle thresholds later) may be reported as Sensitive) | Ct at Sensitive Breakpoint ([3]; E. coli isolate 2, Ct at control (average) 21.270): 28.875 | Molecular Antimicrobial Susceptibility Result ([3]; E. coli isolate 2, at sensitive breakpoint): Sensitive (Antimicrobial wells with pathogen load detected below the control wells (typically >2 cycle thresholds later) may be reported as Sensitive) | Ct at Sensitive Breakpoint ([3]; E. coli isolate 3, Ct at control (average) 22.0995): 30.605 | Molecular Antimicrobial Susceptibility Result ([3]; E. coli isolate 3, at sensitive breakpoint): Sensitive (Antimicrobial wells with pathogen load detected below the control wells (typically >2 cycle thresholds later) may be reported as Sensitive) | Molecular Antimicrobial Susceptibility Result ([3]; E. coli isolate 4, at sensitive breakpoint): Resistant | Ct at Sensitive Breakpoint ([3]; E. coli isolate 5, Ct at control (average) 21.0933): 29.12 | Molecular Antimicrobial Susceptibility Result ([3]; E. coli isolate 5, at sensitive breakpoint): Sensitive (Antimicrobial wells with pathogen load detected below the control wells (typically >2 cycle thresholds later) may be reported as Sensitive) | Molecular Antibiotic Susceptibility Result [4, 5]: Sensitive (Antimicrobial wells with pathogen load detected below the control wells (typically >2 cycle thresholds later) may be reported as Sensitive) | Ct ([4]; E. coli, clinical sample of r10-r24, Ct Control Avg 18.112): 28.072 | Molecular Antibiotic Susceptibility Result [4, 6]: Sensitive (Antimicrobial wells with pathogen load detected below the control wells (typically >2 cycle thresholds later) may be reported as Sensitive) | Ct ([4]; E. coli, clinical sample of r158-r172, Ct Control Avg 20.146): 33.402 | Molecular Antibiotic Susceptibility Result [4, 7]: Sensitive (Antimicrobial wells with pathogen load detected below the control wells (typically >2 cycle thresholds later) may be reported as Sensitive) | Ct ([4]; K. aerogenes, clinical sample of r136-r150, Ct Control Avg 19.994): 36.5 | Molecular Antibiotic Susceptibility Result [4, 8]: Sensitive (Antimicrobial wells with pathogen load detected below the control wells (typically >2 cycle thresholds later) may be reported as Sensitive) | Ct ([4]; K. pneumoniae, clinical sample of r121-r135, Ct Control Avg 24.272): 34.918 | Molecular Antibiotic Susceptibility Result [4, 9]: Sensitive (Antimicrobial wells with pathogen load detected below the control wells (typically >2 cycle thresholds later) may be reported as Sensitive) | Ct ([4]; M. morganii, clinical sample of r55-r69, Ct Control Avg 28.86): Undet | Molecular Antibiotic Susceptibility Result [4, 10]: Sensitive (Antimicrobial wells with pathogen load detected below the control wells (typically >2 cycle thresholds later) may be reported as Sensitive) | Ct ([4]; M. morganii, clinical sample of r70-r84, Ct Control Avg 27.053): 30.225 | Molecular Antibiotic Susceptibility Result [4, 11]: Sensitive (Antimicrobial wells with pathogen load detected below the control wells (typically >2 cycle thresholds later) may be reported as Sensitive) | Ct ([4]; P. mirabilis, clinical sample of r25-r39, Ct Control Avg 26.064): 30.865 | Molecular Antibiotic Susceptibility Result [4, 12]: Sensitive (Antimicrobial wells with pathogen load detected below the control wells (typically >2 cycle thresholds later) may be reported as Sensitive) | Ct ([4]; P. mirabilis, clinical sample of r40-r54, Ct Control Avg 26.987): 33.833 | Molecular Antibiotic Susceptibility Result [4, 13]: Sensitive (Antimicrobial wells with pathogen load detected below the control wells (typically >2 cycle thresholds later) may be reported as Sensitive) | Ct ([4]; S. aureus, clinical sample of r85-r92, Ct Control Avg 24.32): 27.399
